In patent publication US9018203B2, “Pharmaceutical composition of salicylanilide-derived small molecules and preparation and application thereof” (National Defense Medical Center, priority 2012, dated 2015):

Columns and labels:
[1] = MTT cell viability assay in RAW 264.7 cells; format: cell-based, murine; conditions: mouse; for CC50 at 24 hr: read-out: Cell viability: CC50 (cytotoxic concentration that produces 50% cell survival); for viability at 24 hr, 10 µM: 10 μM compound, read-out: Cell viability: Survival rate at 10 μM (%)
Method: (§1) Cell viability was measured by MTT assay in RAW 264.7 cells upon treatment with 10 μM compounds for 24 hr. CC50 (the cytotoxic concentration that produces 50% cell survival) were identified in this example.

RAW 264.7 cells [2] = assay: MTT cell viability assay in RAW 264.7 cells; format: cell-based, murine; conditions: 24 hr; for Cell viability: Survival rate at 10 μM (%): 10 μM compound; for CC50: read-out: Cell viability: CC50 (cytotoxic concentration that produces 50% cell survival)
Method: as §1

RAW 264.7 cells [3] = assay: TRAP staining and activity assay of RANKL-induced osteoclastogenesis; format: cell-based, murine; conditions: 10 μM compound; for Osteoclastogenesis: TRAP+ MNCS at 10 μM (%): 100 ng/mL RANKL, 5 days, relative to RANKL without drug; for Inhibitory activity on osteoclastogenesis (in words) / Inhibition of osteoclast differentiation, TRAP staining (FIG. 1 C, D, E): RANKL
Method: The murine RAW 264.7 cell was an osteoclast precursor cell. RAW 264.7 cells were cultured in DMEM (Gibco BRL), 10% FBS, Penicillin (100 U/L), Streptomycin (100 U/L), 5% CO2, 37° C. To induce the murine RAW 264.7 cells differentiation, the cells were cultured in 96-well culture dish 10^4 cell per dish with α-MEM, 10% FBS, 2 mM L-glutamate, Penicillin (100 U/L), Streptomycin (100 U/L), with or without 100 ng/mL RANKL for 5 days, and added or not added tested drug, replaced the fresh medium at 3 day. The cells were TRAP^+ stained and analyzed the activity, then washed the cells by PBS and fixed by 3.7% formaldehyde for 30 minutes, then washed by PBS. The cells were reacted in Leukocyte Acid Phosphatase Assay kit (Sigma) at 37° C. for 1 hr, and washed by distilled water for three times and counted the multinucleated cells numbers by microscopy.
After treatment with RANKL and 10 μM compounds in RAW 264.7, the osteoclasts were counted percentage of the TRAP^+ cells (TRAP^+ MNCS %, the denominator was the number of cells which was treated with RANKL but without drug, and the numerator was the number of cells which was treated with RANKL and drug).

RAW 264.7 cells [4] = assay: Pit formation assay (bone resorption); format: cell-based, murine; conditions: RANKL, 10 μM compound
Method: In pit formation assay, RAW 264.7 cells were cultured in DMEM (Gibco BRL) 10% FBS, Penicillin (100 U/L), streptomycin (100 U/L), 5% CO2 at 37° C. To induce the murine RAW 264.7 cell differentiation, the cells were cultured in 96-well culture dish 10^4 cell per dish with α-MEM, 10% FBS, 2 mM L-glutamate, Penicillin (100 U/L), Streptomycin (100 U/L), with or without 100 ng/mL RANKL for 5 days in the present or absent tested drug, replaced the fresh medium at 3 day. The 24-well plate were washed by PBS and added in 0.5 mL/well chloride solution, stood at room-temperature for 10 minutes for destroying the cell, then stained with 0.1% Toluidine Blue 0.5 mL/well, and washed by distilled water for three times and photographed under microscopy.

| melting point [°C] | SMILES | CC50 at 24 hr [1] [µM] | Cell viability: Survival rate at 10 μM (%) (RAW 264.7 cells [2]) | Osteoclastogenesis: TRAP+ MNCS at 10 μM (%) (RAW 264.7 cells [3]) | Inhibitory activity on osteoclastogenesis (in words) (RAW 264.7 cells [3]) | viability at 24 hr, 10 µM [1] [%] | Inhibition of osteoclast differentiation, TRAP staining (FIG. 1 C, D, E) (RAW 264.7 cells [3]) | Bone resorption, erosion of bone slices (FIG. 2 C, D) (RAW 264.7 cells [4]) | CC50 (RAW 264.7 cells [2]) [µM] |
| --- | --- | --- | --- | --- | --- | --- | --- | --- | --- |
| – | COc1ccc(C(=O)O)c(O)c1 [2-hydroxy-4-methoxy-benzoic acid, reference compound] | > 40 | 99.4 ± 7.6 | 79.6 ± 8.3 | did not perform significant inhibitory activity | – | – | – | – |
| – | O=C(O)c1ccccc1O [Salicylic acid, reference compound] | > 40 | – | – | did not perform significant inhibitory activity | – | – | – | – |
| 184 to 185 | O=C(Nc1ccc(Cl)cc1F)c1ccccc1O [compound 1a, N-(4-chloro-2-fluorophenyl)-2-hydroxybenzamide] | 21.3 ± 3.4 | – | 49.4±5.4 | – | 93 ± 3.1 | – | – | – |
| 111 to 112 | COc1ccccc1C(=O)Nc1ccc(Cl)cc1F [compound 1b, N-(4-chloro-2-fluorophenyl)-2-methoxybenzamide] | > 40 | 101.8 ± 4.5 | 86.0 ± 9.9 | – | – | – | – | – |
| 121 to 122 | O=C(Nc1ccc(Cl)cc1F)c1ccccc1OCc1ccc(F)cc1F [compound 1c, N-(4-chloro-2-fluorophenyl)-2-((2,4-difluorobenzyl)oxy)benzamide] | > 40 | 107.2 ± 4.5 | 74.6 ± 6.2 | – | – | – | – | – |
| – | O=c1oc2ccccc2c(=O)n1-c1ccc(Cl)cc1F [compound 1d, 3-(4-chloro-2-fluorophenyl)-2H-benzo[e][1,3]oxazine-2,4(3H)-dione] | > 40 | 97.9 ± 2.0 | 3.4±2.1 | – | – | significant inhibition of differentiation | the resorption hole was reduced | – |
| 186 to 187 | COc1ccc(C(=O)Nc2ccc(Cl)cc2F)c(O)c1 [compound 2a, N-(4-chloro-2-fluorophenyl)-2-hydroxy-4-methoxybenzamide] | – | 103.0 ± 2.8 | 23.8±3.4 | – | – | significant inhibition of differentiation | the resorption hole was reduced | 32.3 ± 4.9 |
| 155 to 156 | COc1ccc(C(=O)Nc2ccc(Cl)cc2F)c(OC)c1 [compound 2b, N-(4-chloro-2-fluorophenyl)-2,4-dimethoxybenzamide] | – | 52.9 ± 2.8 | 60.2 ± 3.6 | – | – | – | – | 13.6 ± 1.2 |
| 134 to 135 | COc1ccc(C(=O)Nc2ccc(Cl)cc2F)c(OCc2ccc(F)cc2F)c1 [compound 2c, N-(4-chloro-2-fluorophenyl)-2-((2,4-difluorobenzyl)oxy)-4-methoxybenzamide] | > 40 | 107.3 ± 4.4 | 68.7 ± 4.6 | – | – | – | – | – |
| 203 to 204 | COc1ccc2c(=O)n(-c3ccc(Cl)cc3F)c(=O)oc2c1 [compound 2d, 3-(4-chloro-2-fluorophenyl)-7-methoxy-2H-benzo[e][1,3]oxazine-2,4(3H)-dione] | > 40 | 100.5 ± 2.4 | 36.0±1.8 | – | – | significant inhibition of differentiation | – | – |
| 186 to 187 | O=C(Nc1ccc(F)cc1F)c1ccccc1O [compound 3a, N-(2,4-difluorophenyl)-2-hydroxybenzamide] | > 40 | – | 85.9 ± 6.2 | – | 104 ± 3.6 | – | – | – |
| 86 to 87 | COc1ccccc1C(=O)Nc1ccc(F)cc1F [compound 3b, N-(2,4-difluorophenyl)-2-methoxybenzamide] | > 40 | 108.5 ± 4.0 | 89.1 ± 5.1 | – | – | – | – | – |
| 135 to 136 | O=C(Nc1ccc(F)cc1F)c1ccccc1OCc1ccc(F)cc1F [compound 3c, 2-((2,4-difluorobenzyl)oxy)-N-(2,4-difluorophenyl)benzamide] | > 40 | 101.1 ± 3.2 | 97.6 ± 6.0 | – | – | – | – | – |
| 182 to 183 | O=c1oc2ccccc2c(=O)n1-c1ccc(F)cc1F [compound 3d, 3-(2,4-difluorophenyl)-2H-benzo[e][1,3]oxazine-2,4(3H)-dione] | > 40 | – | 69.8 ± 7.7 | – | 105 ± 6.3 | – | – | – |
| 180 to 181 | COc1ccc(C(=O)Nc2ccc(F)cc2F)c(O)c1 [compound 4a, N-(2,4-difluorophenyl)-2-hydroxy-4-methoxybenzamide] | > 40 | – | 41.3±8.6 | – | 105 ± 4.7 | – | – | – |
| 138 to 139 | COc1ccc(C(=O)Nc2ccc(F)cc2F)c(OC)c1 [compound 4b, N-(2,4-difluorophenyl)-2,4-dimethoxybenzamide] | > 40 | 102.5 ± 9.3 | 93.0 ± 7.7 | – | – | – | – | – |
| 131 to 132 | COc1ccc(C(=O)Nc2ccc(F)cc2F)c(OCc2ccc(F)cc2F)c1 [compound 4c, 2-((2,4-difluorobenzyl)oxy)-N-(2,4-difluorophenyl)-4-methoxybenzamide] | > 40 | 106.0 ± 8.8 | 66.2 ± 8.1 | – | – | – | – | – |
| 138 to 139 | COc1ccc2c(=O)n(-c3ccc(F)cc3F)c(=O)oc2c1 [compound 4d, 3-(2,4-difluorophenyl)-7-methoxy-2H-benzo[e][1,3]oxazine-2,4(3H)-dione] | > 40 | – | 87.9 ± 9.1 | – | 102 ± 9.1 | – | – | – |
